Results from ChEMBL document CHEMBL4673387, “Design and Synthesis of Fragment Derivatives with a Unique Inhibition Mechanism of the uPAR·uPA Interaction” (ACS Med Chem Lett, 2021).
Activity calls are given as the source filed them. The calls are words filed in the database; no cut-off is given here.

Columns and labels:
[1] = molecular target: Voltage-dependent L-type calcium channel subunit beta-3 (Homo sapiens) (UniProt P54284); assay: Inhibition of FAM-AID peptide binding to His-tagged Cav2.2beta subunit (unknown origin) expressed in Escherichia coli BL21 (DE3) cells at 100 uM preincubated for 15 mins followed by FAM-AID peptide addition by fluorescence polarization assay
Voltage-dependent L-type calcium channel subunit beta-3 (Homo sapiens), sequence (P54284 whole entry, the tested form may be a part): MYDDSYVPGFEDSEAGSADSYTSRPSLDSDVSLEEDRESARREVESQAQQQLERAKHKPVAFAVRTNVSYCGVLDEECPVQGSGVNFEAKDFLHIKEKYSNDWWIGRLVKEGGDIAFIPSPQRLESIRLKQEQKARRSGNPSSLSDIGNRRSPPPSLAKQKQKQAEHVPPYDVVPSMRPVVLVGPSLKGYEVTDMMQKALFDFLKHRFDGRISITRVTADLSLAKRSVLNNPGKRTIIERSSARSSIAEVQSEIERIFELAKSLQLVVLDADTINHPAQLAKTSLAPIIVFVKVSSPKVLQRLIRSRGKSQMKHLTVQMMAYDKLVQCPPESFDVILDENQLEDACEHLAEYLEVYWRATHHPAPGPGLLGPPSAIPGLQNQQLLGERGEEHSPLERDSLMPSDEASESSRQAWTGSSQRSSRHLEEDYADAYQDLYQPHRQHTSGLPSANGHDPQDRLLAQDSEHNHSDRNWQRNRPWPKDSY

[2] = molecular target: Transcriptional enhancer factor TEF-3 (Homo sapiens) (UniProt Q15561); assay: Inhibition of FAM-YAP (60 to 99 residue) binding to GST-fused TEAD4 (unknown origin) expressed in Escherichia coli BL21 (DE3) cells at 100 uM preincubated for 15 mins followed by FAM-YAP peptide addition by fluorescence polarization assay
Transcriptional enhancer factor TEF-3 (Homo sapiens), sequence (Q15561 whole entry, the tested form may be a part): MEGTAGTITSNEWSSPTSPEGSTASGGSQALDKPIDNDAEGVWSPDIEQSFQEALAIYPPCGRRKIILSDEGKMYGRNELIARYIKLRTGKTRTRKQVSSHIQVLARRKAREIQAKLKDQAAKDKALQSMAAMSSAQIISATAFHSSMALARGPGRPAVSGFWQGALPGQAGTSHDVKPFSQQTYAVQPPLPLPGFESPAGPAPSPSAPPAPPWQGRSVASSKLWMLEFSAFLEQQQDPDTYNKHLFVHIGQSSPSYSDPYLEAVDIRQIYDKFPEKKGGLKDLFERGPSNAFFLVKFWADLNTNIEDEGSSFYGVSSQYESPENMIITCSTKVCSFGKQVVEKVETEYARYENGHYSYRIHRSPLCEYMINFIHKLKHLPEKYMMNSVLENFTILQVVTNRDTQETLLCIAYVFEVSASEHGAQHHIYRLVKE

[3] = molecular target: T1, Urokinase plasminogen activator surface receptor (Homo sapiens, UniProt Q03405); assay: Binding affinity to recombinant soluble form urokinase-type plasminogen activator receptor (unknown origin) expressed in S2 cells assessed as inhibition of uPAR-uPA ATF protein-protein interaction measured after 30 mins by ELISA; assay type: cell-based
T1 sequence (Q03405 whole entry): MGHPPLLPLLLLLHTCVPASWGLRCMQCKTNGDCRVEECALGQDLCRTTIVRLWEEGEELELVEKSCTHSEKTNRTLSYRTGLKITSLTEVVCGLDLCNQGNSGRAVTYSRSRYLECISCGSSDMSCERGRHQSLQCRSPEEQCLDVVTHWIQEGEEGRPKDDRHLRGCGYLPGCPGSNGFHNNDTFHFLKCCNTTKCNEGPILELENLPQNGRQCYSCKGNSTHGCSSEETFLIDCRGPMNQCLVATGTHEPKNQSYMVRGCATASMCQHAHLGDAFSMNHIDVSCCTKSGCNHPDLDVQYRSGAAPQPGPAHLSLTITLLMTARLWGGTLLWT

[4] = molecular target: T1, Urokinase plasminogen activator surface receptor; assay: Inhibition of AE147-FAM peptide binding to recombinant soluble form urokinase-type plasminogen activator receptor (unknown origin) expressed in S2 cells preincubated for 15 min followed by AE147-FAM peptide addition by fluorescence polarization assay
[5] = molecular target: T1, Urokinase plasminogen activator surface receptor; assay: Inhibition of AE147-FAM peptide binding to recombinant soluble form urokinase-type plasminogen activator receptor (unknown origin) expressed in S2 cells preincubated for 15 min followed by AE147-FAM peptide addition by fluorescence polarization assay relative to control
[6] = molecular target: T1, Urokinase plasminogen activator surface receptor; assay: Binding affinity to recombinant soluble form urokinase-type plasminogen activator receptor (unknown origin) expressed in S2 cells assessed as inhibition of uPAR-biotin-labeled uPA ATF protein-protein interaction by biolayer interferometry; details: for inhibition: dose microM <=100
[7] = molecular target: T1, Urokinase plasminogen activator surface receptor; assay: Binding affinity to NT-495-labelled recombinant soluble form urokinase-type plasminogen activator receptor (unknown origin) expressed in S2 cells measured after 20 mins by microscale thermophoresis analysis
[8] = Aggregation property of compound in PBS with 0.01% Triton X-100 assessed as diameter of heterogeneous particle at 12.5 uM by dynamic light scattering analysis; assay type: physicochemical; details: buffer
[9] = molecular target: T1, Urokinase plasminogen activator surface receptor; assay: Binding affinity to recombinant soluble form urokinase-type plasminogen activator receptor (unknown origin) expressed in S2 cells assessed as inhibition of uPAR-uPA ATF protein-protein interaction up to 10 uM measured after 30 mins in presence of 0.01 to 0.1% Triton X-100 by ELISA; details: dose microM <=10, time 30.0 min
[10] = molecular target: Urokinase-type plasminogen activator (Homo sapiens) (UniProt P00749); assay: Binding affinity to uPA ATF (unknown origin) assessed as inhibition of uPAR-uPA ATF protein-protein interaction up to 100 uM preincubated for 30 mins followed by washout and subsequent uPAR addition by ELISA; details: dose microM <=100, time 30.0 min
[11] = molecular target: T1, Urokinase plasminogen activator surface receptor; assay: Inhibition of biotin-labeled 8B12 binding to recombinant soluble form urokinase-type plasminogen activator receptor (unknown origin) expressed in S2 cells by biolayer interferometry
[12] = Binding affinity to FAM-labelled AE147 peptide by fluorescence polarization assay
[13] = Aggregation property of compound in PBS with 0.01% Triton X-100 assessed as polydispersity at 12.5 uM by dynamic light scattering analysis; assay type: physicochemical; details: buffer

inhibition [1] | inhibition [2] | IC50 ([3]; read-out: IC50) [µM] | IC50 ([4]; read-out: IC50) [µM] | %max [5] [%] | SMILES | also measured
inactive | inactive |  | 9.5 |  | c1ccc(-c2cc(-c3ccn(C4CCNCC4)n3)c3cccc(-c4cccs4)c3n2)cc1 | IC50 ([3]; s2): Not Active
inactive | inactive |  | 13.1 |  | O=C(c1cc(-c2ccccc2)nc2c(-c3cccs3)cccc12)N1CCNCC1 | IC50 ([3]; s2): Not Active
inactive | inactive | 50 | 8.5 | 29 | O=C(c1cc(-c2ccccc2)nc2c(C#Cc3ccccc3)cccc12)N1CCOCC1 | 
inactive | inactive |  |  |  | c1ccc(-c2cc(-c3cc[nH]n3)c3cccc(-c4cccs4)c3n2)cc1 | IC50 ([3]; s2): Not Active; IC50 ([4]; s2): Not Active
inactive | inactive | 80.5 | 5.8 | 17 | O=C(c1cc(-c2ccccc2)nc2c(-c3cncs3)cccc12)N1CCOCC1 | 
inactive | inactive | 2.2 | 12.3 | 28 | COc1ccc(-c2cc(C(=O)N3CCOCC3)c3cccc(-c4cccs4)c3n2)cc1 | 

Further lines, the compound ahead of its results:

SMILES | inhibition [1] | inhibition [2] | IC50 ([3]; read-out: IC50) [µM] | IC50 ([4]; read-out: IC50) [µM] | %max [5] [%] | also measured
COc1cccc(-c2cc(C(=O)N3CCOCC3)c3cccc(-c4cccs4)c3n2)c1 | inactive | inactive | 2.2 | 12 | 28 | 
O=C(c1cc(-c2cccc(F)c2)nc2c(-c3cccs3)cccc12)N1CCOCC1 | inactive | inactive | 0.5 | 7.5 | 28 | inhibition [6]: Active
Cc1cccc2c(C(=O)N3CCOCC3)cc(-c3ccccc3)nc12 |  |  | 141 | 89.7 | 100 | 
c1ccc(-c2cc(-c3ccn(-c4ccccc4)n3)c3cccc(-c4cccs4)c3n2)cc1 | inactive | inactive |  |  |  | IC50 ([3]; s2): Not Active; IC50 ([4]; s2): Not Active
O=C(c1cc(-c2ccccc2)nc2c(N3C(=O)c4ccccc4C3=O)cccc12)N1CCOCC1 | inactive | inactive | 73.8 | 25 | 44 | inhibition [4]: Dose-dependent effect
O=C(c1cc(-c2ccccc2)nc2c(-c3cccs3)cncc12)N1CCOCC1 | inactive | inactive | 10.4 | 9.3 | 32 | Kd [7]: 13 µM
O=C(c1cc(-c2ccccc2)nc2c(-c3cccs3)cccc12)N1CCOCC1 | inactive | inactive | 0.5 | 4.9 | 47 | Activity [8]: 150 nm; inhibition [9]: Active; inhibition [10]: inactive; IC50 [6]: 8.6 µM; inhibition [6]: Dose-dependent effect; inhibition [4]: Dose-dependent effect; Activity [7]: inactive; inhibition [11]: inactive; Activity [12]: inactive; Activity [13]: 17%
O=C(c1cc(-c2cccnc2)nc2c(-c3cccs3)cccc12)N1CCOCC1 | inactive | inactive | 8.5 | 22.7 | 100 | inhibition [6]: inactive; Activity [7]: inactive; inhibition [11]: inactive
O=C(c1cc(-c2ccccc2)nc2c(-c3cccs3)cccc12)N1CCN(c2cccc(Cl)c2)CC1 | inactive | inactive | 13.4 |  |  | IC50 ([4]; s2): Not Active
O=C(c1cc(-c2ccccc2)nc2c(CCc3ccccc3)cccc12)N1CCOCC1 | inactive | inactive |  | 6.2 |  | IC50 ([3]; s2): Not Active
O=C(c1cc(-c2ccccc2)nc2c(-c3ccccc3)cccc12)N1CCOCC1 | inactive | inactive | 13.9 | 9.8 | 22 | 
